Laboratory results taken from PMC8787488, “Two-Metal Ion-Dependent Enzymes as Potential Antiviral Targets in Human Herpesviruses” (mBio, 2022).

Columns and labels:
ICP8Δ60 = biological target: T1, ICP8Δ60 (Human alphaherpesvirus 1 strain KOS, UniProt P17470); assay: thermal shift, nanoDSF (Tycho NT.[…]); type: binding; details: 20x molar excess of compound to protein, 5 mM MgCl2, pH 7.5, without ssDNA
T1 construct: gene DBP; 60-residue deletion; source not described

UL12 = biological target: T2, UL12 (Human alphaherpesvirus 1 strain 17, UniProt P04294); assay: PicoGreen dsDNA exonuclease assay; type: biochemical; details: 10 nM UL12, 1 nM linearized pUC19 DNA, 1 mM MgCl2, pH 8.2, 37°C
T2 construct: full-length alkaline nuclease, purified from baculovirus-infected Sf9 cells

His-UL30ΔN42 = biological target: T3, His-UL30ΔN42 (Human alphaherpesvirus 1 strain KOS, UniProt P04292); assay: gel-based primer extension polymerase assay; type: biochemical; details: 50 nM enzyme, dNTPs, 10 mM MgCl2, pH 7.6, 37°C
T3 construct: gene UL30; His-tagged, N-terminal 42 residues deleted; gift from Donald Coen; no UL42 mentioned

UL15C = biological target: T4, UL15C (Human alphaherpesvirus 1 strain 17, UniProt P04295); assay: dual-probe fluorescence nuclease assay; type: biochemical
T4 construct: gene TRM3; C-terminal nuclease domain, residues 471 to 736, pET28b(+), from E. coli BL21(DE3); without UL28 and UL33
T4 sequence (P04295 471-735): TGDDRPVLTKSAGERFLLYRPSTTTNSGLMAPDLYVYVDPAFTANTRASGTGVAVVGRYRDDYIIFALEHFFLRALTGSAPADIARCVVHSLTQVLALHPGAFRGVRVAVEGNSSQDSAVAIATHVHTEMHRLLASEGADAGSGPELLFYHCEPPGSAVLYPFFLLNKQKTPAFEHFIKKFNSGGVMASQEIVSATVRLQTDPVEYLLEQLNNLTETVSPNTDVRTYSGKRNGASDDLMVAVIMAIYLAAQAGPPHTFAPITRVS

T2 sequence (P04294 whole entry, looked up): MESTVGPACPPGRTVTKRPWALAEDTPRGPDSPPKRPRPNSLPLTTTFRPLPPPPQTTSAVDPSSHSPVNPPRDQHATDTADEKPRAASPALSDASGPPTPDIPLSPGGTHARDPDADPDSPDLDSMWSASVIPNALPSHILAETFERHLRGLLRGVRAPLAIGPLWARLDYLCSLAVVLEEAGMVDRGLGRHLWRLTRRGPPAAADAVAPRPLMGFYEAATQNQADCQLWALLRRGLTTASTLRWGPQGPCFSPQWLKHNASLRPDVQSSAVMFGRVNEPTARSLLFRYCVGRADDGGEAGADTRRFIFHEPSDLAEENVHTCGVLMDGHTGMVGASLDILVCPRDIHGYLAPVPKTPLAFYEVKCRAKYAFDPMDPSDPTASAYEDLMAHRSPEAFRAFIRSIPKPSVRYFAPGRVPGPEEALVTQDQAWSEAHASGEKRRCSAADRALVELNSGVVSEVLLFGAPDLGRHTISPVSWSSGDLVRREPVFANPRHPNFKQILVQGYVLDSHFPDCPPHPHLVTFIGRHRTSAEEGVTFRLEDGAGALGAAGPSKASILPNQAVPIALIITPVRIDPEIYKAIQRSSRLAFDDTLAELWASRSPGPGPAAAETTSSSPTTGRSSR
T3 sequence (P04292 43-1235, stated change not applied): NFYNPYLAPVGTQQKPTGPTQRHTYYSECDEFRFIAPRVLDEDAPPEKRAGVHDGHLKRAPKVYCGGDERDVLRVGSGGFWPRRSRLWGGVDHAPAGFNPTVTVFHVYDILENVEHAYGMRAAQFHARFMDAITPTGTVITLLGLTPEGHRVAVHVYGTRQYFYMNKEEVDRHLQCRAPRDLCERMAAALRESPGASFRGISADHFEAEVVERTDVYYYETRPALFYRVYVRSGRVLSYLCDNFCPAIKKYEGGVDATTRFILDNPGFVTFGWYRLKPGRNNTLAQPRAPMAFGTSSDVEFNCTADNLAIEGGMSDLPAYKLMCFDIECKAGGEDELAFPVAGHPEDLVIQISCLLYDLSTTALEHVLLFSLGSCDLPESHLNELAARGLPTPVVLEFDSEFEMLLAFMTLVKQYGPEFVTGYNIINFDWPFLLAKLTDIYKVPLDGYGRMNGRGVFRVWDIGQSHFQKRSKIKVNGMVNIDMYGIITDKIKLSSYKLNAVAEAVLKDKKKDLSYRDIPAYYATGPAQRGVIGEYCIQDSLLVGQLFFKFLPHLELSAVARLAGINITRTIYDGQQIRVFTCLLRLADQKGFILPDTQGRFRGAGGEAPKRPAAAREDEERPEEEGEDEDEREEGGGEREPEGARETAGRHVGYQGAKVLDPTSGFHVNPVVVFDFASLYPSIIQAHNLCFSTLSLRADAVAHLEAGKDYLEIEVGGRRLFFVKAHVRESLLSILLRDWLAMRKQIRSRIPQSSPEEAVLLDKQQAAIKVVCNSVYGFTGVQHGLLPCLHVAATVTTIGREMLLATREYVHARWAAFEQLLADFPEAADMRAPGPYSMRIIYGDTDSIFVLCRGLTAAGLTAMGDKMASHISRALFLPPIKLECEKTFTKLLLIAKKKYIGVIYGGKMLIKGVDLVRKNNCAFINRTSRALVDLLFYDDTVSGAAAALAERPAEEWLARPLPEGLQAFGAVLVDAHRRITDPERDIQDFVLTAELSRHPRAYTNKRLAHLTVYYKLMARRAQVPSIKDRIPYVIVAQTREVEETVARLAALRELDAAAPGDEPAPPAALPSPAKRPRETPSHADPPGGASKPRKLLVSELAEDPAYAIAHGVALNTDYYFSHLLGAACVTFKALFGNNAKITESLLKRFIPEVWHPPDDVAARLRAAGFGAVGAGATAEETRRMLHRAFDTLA
T1 sequence (P17470 1-1136, stated change not applied): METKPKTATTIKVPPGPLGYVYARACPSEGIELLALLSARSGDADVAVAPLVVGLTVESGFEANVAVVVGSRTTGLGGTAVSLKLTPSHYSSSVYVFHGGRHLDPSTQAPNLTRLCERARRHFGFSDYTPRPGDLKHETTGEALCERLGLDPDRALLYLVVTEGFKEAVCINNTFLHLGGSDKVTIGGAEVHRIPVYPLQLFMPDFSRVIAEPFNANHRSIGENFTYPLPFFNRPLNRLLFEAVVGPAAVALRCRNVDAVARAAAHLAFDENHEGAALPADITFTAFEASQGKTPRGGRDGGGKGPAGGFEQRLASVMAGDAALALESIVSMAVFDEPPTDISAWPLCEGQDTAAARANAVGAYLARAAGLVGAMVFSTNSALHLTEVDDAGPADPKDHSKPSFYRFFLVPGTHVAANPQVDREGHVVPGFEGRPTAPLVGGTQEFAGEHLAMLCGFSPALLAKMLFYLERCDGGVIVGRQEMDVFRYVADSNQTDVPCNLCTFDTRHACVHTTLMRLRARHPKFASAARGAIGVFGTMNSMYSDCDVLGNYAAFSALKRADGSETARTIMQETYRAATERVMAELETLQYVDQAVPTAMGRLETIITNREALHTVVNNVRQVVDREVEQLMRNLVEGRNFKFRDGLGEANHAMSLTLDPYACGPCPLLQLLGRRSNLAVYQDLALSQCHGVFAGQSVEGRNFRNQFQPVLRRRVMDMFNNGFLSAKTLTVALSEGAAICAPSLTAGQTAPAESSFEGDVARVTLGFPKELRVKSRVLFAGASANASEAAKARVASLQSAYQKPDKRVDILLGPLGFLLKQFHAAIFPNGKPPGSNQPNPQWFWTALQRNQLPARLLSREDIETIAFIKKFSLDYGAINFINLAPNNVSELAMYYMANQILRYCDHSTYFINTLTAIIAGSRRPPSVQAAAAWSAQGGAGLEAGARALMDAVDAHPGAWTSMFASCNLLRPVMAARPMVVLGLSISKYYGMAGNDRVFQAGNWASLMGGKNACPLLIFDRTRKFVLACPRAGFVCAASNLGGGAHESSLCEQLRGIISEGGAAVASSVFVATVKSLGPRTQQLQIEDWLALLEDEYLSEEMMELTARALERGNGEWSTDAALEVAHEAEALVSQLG

Row | SMILES | Ti (ICP8Δ60) | % inhibition at 20 μM (UL12) | inhibition at 20 μM (His-UL30ΔN42) | inhibition at 12.5 µM (UL15C) [%]
1 | O=c1c(O)cccc2cc(O)c(O)c(O)c12 [purpurogallin] | RAL had no appreciable interactions with ICP8, while PPG showed a modest effect | strong inhibition was observed for PPG, AK-157, and AK-166 | – | –
2 | O=C(Nc1ccc(Br)cc1)c1ccc2cccnc2c1O [AK-157] | – | strong inhibition was observed for PPG, AK-157, and AK-166 | only AK-157 and the known polymerase inhibitor phosphonoacetic acid (PAA) showed strong inhibition | –
3 | Cc1nnc(C(=O)NC(C)(C)c2nc(C(=O)NCc3ccc(F)cc3)c(O)c(=O)n2C)o1 [raltegravir] | – | – | – | ~80
4 | CC(C)c1ccc(CNC(=O)c2ccc3cccnc3c2O)cc1 [AK-166] | – | strong inhibition was observed for PPG, AK-157, and AK-166 | – | –
